How the values were obtained:
HDAC = settings: cited from earlier work; for concentration at which HDAC is inhibited: in vitro or in vivo, literature
human γ-globin genes = assay: Expression of human γ-globin genes monitored by qRT-PCR in β-YAC mice before and after drug treatment; type: in vivo, mouse
From the text: The wild-type β-globin locus transgenic (β-YAC) mouse strain was kindly provided by K. Peterson and was created with the insertion of a 213 kb YAC containing the entire human β-globin locus (30). This β-YAC line contains three intact copies of the human β-globin locus integrated at a single genomic locus. The A20 β-YAC line harboring a single copy of a 150 kb β-globin locus YAC was kindly provided by K. Gaensler and M. Groudine (31). These transgenes were maintained in the hemizygous state. C57BL/6 mice containing a Bcl11a floxed allele (with loxP sites flanking exon 1) were created through gene targeting approaches (G.C.I. et al, in preparation). To obtain the Bcl11a conditional knockout mice, the Bcl11a^fl/fl mice were crossed with various Cre strains, including EpoR-GFP Cre knock-in mice (13), Vav-Cre (32) and Mx1-Cre (33) transgenic mice. The humanized mouse model of sickle cell anemia that expresses exclusively human sickle hemoglobin (HbS) was obtained from The Jackson Laboratory and has been described and characterized previously (19). These mice contain the human sickle transgene [Tg(Hu-miniLCRα1^Gγ^Aγδβ^S)Hba^0//Hba^0Hbb^0//Hbb^0] and knockout of both the murine α- and β-globin genes (hereafter called SCD mice). The human sickle transgene were created by three DNA fragments consisting of a 6.5-kb mini-LCR, a 1.5-kb Pst I fragment containing the human α1-globin gene, and a 39-kb Kpn I fragment containing the human ^Gγ, ^Aγ, δ, and β^S globin genes in their normal genomic context (19). No significant difference in globin gene expression and SCD phenotypes were observed between mice that are knockout of one copy or both copies of murine α-globin genes. To generate BCL11A knockout SCD mice, the inventors introduced the EpoR-Cre and Bcl11a^fl/fi alleles into the SCD transgenic knockout mice (hereafter called SCD/Bcl11a^−/− mice). Mice containing both the human sickle transgene and at least one copy of murine β-globin gene were used as controls. PolyI:ployC (pIpC, SIGMA®) was prepared at 2 mg/ml in PBS and administrated via intraperitoneal (i.p.) injection daily at a dose of 25 μg/kg for 7 days. […]
FACS-sorted CD71^+Ter1 19^+ erythroid cells was isolated from bone marrows of 6-week old mice. […] Model-based expression value of probe sets were calculated by dChip from raw AFFYMETRIX® CEL files, and QQ-normalization was then applied to normalize the expression value distribution among multiple arrays (41). […] For quantitative RT-PCR analysis, RNA was extracted using a QIAamp® RNA Blood Mini Kit or an RNeasy® Plus Mini Kit (QIAGEN®). Quantified RNA was reverse-transcribed using an iScript cDNA Synthesis Kit (BIO-RAD®). cDNA samples were analyzed in triplicate with the iQ™ SYBR® Green Supermix using the iCycler Real-Time PCR Detection System (BIO-RAD®). […]

acetyl-H3 (H3ac) = assay: Western blot of acetyl-H3 (H3ac) in whole-cell extracts of bone marrow cells of treated mice; type: in vivo, mouse; settings: after SAHA treatment, control and Bcl11a−/− (EpoR-Cre+) mice
From the text: (§1) The wild-type β-globin locus transgenic (β-YAC) mouse strain was kindly provided by K. Peterson and was created with the insertion of a 213 kb YAC containing the entire human β-globin locus (30). This β-YAC line contains three intact copies of the human β-globin locus integrated at a single genomic locus. The A20 β-YAC line harboring a single copy of a 150 kb β-globin locus YAC was kindly provided by K. Gaensler and M. Groudine (31). These transgenes were maintained in the hemizygous state. C57BL/6 mice containing a Bcl11a floxed allele (with loxP sites flanking exon 1) were created through gene targeting approaches (G.C.I. et al, in preparation). To obtain the Bcl11a conditional knockout mice, the Bcl11a^fl/fl mice were crossed with various Cre strains, including EpoR-GFP Cre knock-in mice (13), Vav-Cre (32) and Mx1-Cre (33) transgenic mice. The humanized mouse model of sickle cell anemia that expresses exclusively human sickle hemoglobin (HbS) was obtained from The Jackson Laboratory and has been described and characterized previously (19). […]
Expression of BCL11A was assessed using antibody 14B5 and 15E3AC11 (Abcam Inc.), as described previously (9). […] GAPDH (sc-25778, Santa Cruz Biotechnology Inc.) was analyzed as a loading control.

[1] = tested on: acetyl-H3 within γ-promoter regions; assay: ChIP of chromatin acetyl-H3 within human globin loci in CD71+Ter119+ BM cells of treated β-YAC mice; type: in vivo, mouse; settings: after SAHA treatment
From the text: as §1
ChIP was performed as previously described (10). […] Precipitated DNA samples were quantified using primers designed to amplify several control regions within the human β-globin locus as indicated below the graph. […]

trichostatin A [TSA]
inhibition of mammalian HDAC (HDAC; literature (Yoshida et al. 1990)): potent inhibitor

C/C=C1\NC(=O)[C@H]2CSSCC/C=C/[C@H](CC(=O)N[C@H](C(C)C)C(=O)N2)OC(=O)[C@H](C(C)C)NC1=O [FR901228]
concentration at which HDAC is inhibited (HDAC): micromolar concentrations

O=C(/C=C/c1cccc(C(=O)NO)c1)NO [CBHA, m-carboxy-cinnamic acid bishydroxamic acid]
concentration at which HDAC is inhibited (HDAC): micromolar concentration or lower

CCC(=O)CCCCC[C@@H]1NC(=O)[C@H]2CCCCN2C(=O)[C@H]([C@@H](C)CC)NC(=O)[C@H](Cc2cn(OC)c3ccccc23)NC1=O [Apicidin]
concentration at which HDAC is inhibited (HDAC): nanomolar concentrations

C=C[C@@H](O)[C@@H]1O[C@H]1/C=C/[C@@H]1O[C@@H]1[C@@H](C)O [depudecin]
concentration at which HDAC is inhibited (HDAC): micromolar concentrations

O=C(CCCCCCC(=O)Nc1ccccc1)NO [SAHA, suberoylanilide hydroxamic acid]
interaction of SAHA with BCL11A loss in derepression of γ-globin mRNA (human γ-globin genes; Bcl11a−/− (EpoR-Cre+) vs control β-YAC mice, 25 mg/kg daily i.p. for up to three weeks): synergized | level of histone H3 acetylation in bone marrow cells (acetyl-H3 (H3ac)): elevated | level of histone H3 acetylation within γ-promoter regions [1]: elevated

Nc1ncn([C@H]2C[C@H](O)[C@@H](CO)O2)c(=O)n1 [5-azaD, 5-aza-2′-deoxycytidine]
interaction of 5-azaD treatment with BCL11A loss on γ-globin mRNA (human γ-globin genes; Bcl11a−/− (EpoR-Cre+) vs control β-YAC mice, 5 mg/kg daily for 5 days i.p., 5 mg/kg): unexpectedly synergistic | γ-globin mRNA (human γ-globin genes; Bcl11a−/− (EpoR-Cre+) β-YAC mice, 5-azaD 5 mg/kg daily for 5 days i.p.): 37.9% | change in γ-globin mRNA (human γ-globin genes; normal (control, Bcl11a+/+) β-YAC mice, 5-azaD 5 mg/kg daily for 5 days i.p.): very small increment

— patent US20140271657A1, “COMBINATORIAL COMPOSITIONS AND METHODS OF TREATING HEMOGLOBINOPATHIES” (CHILDREN'S MEDICAL CENTER CORPORATION, priority 2011, published 2014)
